How the values were obtained:
[1] = test system: Human Burkitt lymphoma Raji cells; assay type: cell-based; settings: no epcoritamab, bendamustine 0-20 μM, 48 hours
Experimental: (§1) Bendamustine, an alkylating agent that causes intra- and inter-strand crosslinks between DNA bases, is approved for treatment of CLL and indolent B-NHL. This experiment was performed to determine whether bendamustine impacts the anti-tumor activity of epcoritamab by using in vitro T-cell activation and cytotoxicity assays.
(§2) Briefly, Human Burkitt lymphoma (Raji [ATCC, cat. no. CCL-86]) and DLBCL (SU-DHL-4 [Deutsche Sammlung von Mikroorganismen und Zellkulturen—DSMZ, cat. no. ACC-495]) cell lines were used as target cells. Cells were cultured in culture medium (RPMI 1640 with HEPES and L-Glutamine supplemented with 10% heat-inactivated donor bovine serum with iron, and 1% [v/v] penicillin/streptomycin) to which 2 mM L-glutamine, and 1 mM sodium pyruvate were added, at 37° C., 5% CO2. […] Isolated cells were washed twice in phosphate buffered saline (PBS) and counted using acridine orange/propidium iodide (AO/PI) viability staining solution (Nexcelom Bioscience) on a Cellometer® Auto 2000 Cell Viability Counter. […] B-cell viability and T-cell activation were measured by flow cytometry (count of CD22-positive cells; expression of the activation markers CD69, CD25, and CD107 [LAMP-1] on CD4+ and CD8+ T cells). The percentage cytotoxicity was calculated as follows: […]

DLBCL SU-DHL-4 cells = assay type: cell-based, human; settings: no epcoritamab, bendamustine 0-20 μM, 48 hours
Experimental: as §1, §2

[2] = test system: double-refractory follicular lymphoma; settings: Salles et al., Haematologica 2017; cited from earlier work
[3] = test system: relapsed/refractory (R/R) B-NHL; experiment: epcoritamab monotherapy clinical trial in R/R B-NHL (NCT03625037); assay type: in vivo, human; settings: R/R B-NHL patients, preliminary data
Source text: Epcoritamab as monotherapy is currently in a clinical trial for the treatment of relapsed/refractory (R/R) B-NHL (ClinicalTrials.gov Identifier: NCT03625037).

[4] = test system: primary DLBCL and follicular lymphoma patient biopsies; settings: cited from earlier work
[5] = test system: T cells isolated from human healthy donor buffy coats; experiment: in vitro T-cell activation assay (flow cytometry; CD69, CD25, CD107/LAMP-1); assay type: cell-based
Experimental: as §1
Briefly, Human Burkitt lymphoma (Raji [ATCC, cat. no. CCL-86]) and DLBCL (SU-DHL-4 [Deutsche Sammlung von Mikroorganismen und Zellkulturen—DSMZ, cat. no. ACC-495]) cell lines were used as target cells. Cells were cultured in culture medium (RPMI 1640 with HEPES and L-Glutamine supplemented with 10% heat-inactivated donor bovine serum with iron, and 1% [v/v] penicillin/streptomycin) to which 2 mM L-glutamine, and 1 mM sodium pyruvate were added, at 37° C., 5% CO2. T cells, which were isolated from human healthy donor buffy coats by negative selection using the RosetteSep™ Human T Cell Enrichment Cocktail (Stemcell Technologies) followed by density centrifugation over a Ficoll gradient, both according to the manufacturer's instructions, were used as effector cells. Isolated cells were washed twice in phosphate buffered saline (PBS) and counted using acridine orange/propidium iodide (AO/PI) viability staining solution (Nexcelom Bioscience) on a Cellometer® Auto 2000 Cell Viability Counter. T cells (100,000 cells/well) were incubated with Raji or SU-DHL-4 cells (50,000 cells/well) in culture medium in the presence of epcoritamab (0.033 pg/mL-333 ng/mL) and bendamustine (0-20 μM) at 37° C., 5% CO2 for 48 hours. B-cell viability and T-cell activation were measured by flow cytometry (count of CD22-positive cells; expression of the activation markers CD69, CD25, and CD107 [LAMP-1] on CD4+ and CD8+ T cells). The percentage cytotoxicity was calculated as follows: […]

[6] = test system: previously untreated follicular lymphoma; experiment: Phase 1b study of epcoritamab in combination with rituximab and bendamustine (BR); assay type: in vivo
Experimental: The Part 1 dose escalation assesses the initial safety, tolerability, and clinical activity of epcoritamab in combination with BR. Epcoritamab is initially be administered in combination with BR in a 3-subject cohort. DLTs are evaluated during the first 28 days. Depending on the number of DLTs observed in the initial 3 subjects, administration of epcoritamab (full dose: 48 mg or 24 mg) in combination with BR is performed in an additional 3 patients as shown in FIG. 3.
In Part 2, epcoritamab is administered (with the dosing regimen determined in the dose escalation part) in combination with BR. The expansion will include 20 subjects in order to evaluate the preliminary clinical activity of the combination, in addition to safety, tolerability, PK, pharmacodynamic, and immunogenicity data.
A step-up dosing method is used for epcoritamab to mitigate the potential for CRS: priming dose (0.16 mg) on cycle 1 day 1, followed by intermediate dose (0.8 mg) on cycle 1 day 8, full dose (24 mg or 48 mg) on cycle 1 day 15 and day 22, and full dose in subsequent cycles. […] Bendamustine (90 mg/m^2) is administered intravenously daily on days 1 and 2 of cycles 1-6. If bendamustine is started later than day 1 of a cycle, then planned day 1 of the next cycle is calculated from the day when bendamustine was actually initiated in order to maintain the regular cycle interval of 28 days. […]
Safety is assessed by measuring adverse events, laboratory test results, ECGs, vital sign measurements, physical examination findings, and ECOG performance status. Also assessed are immune effector cell-associated neurotoxicity syndrome (e.g., as described by Lee et al., Biol BloodMarrow Transplant 2019; 25:625-638), constitutional symptoms (B symptoms), tumor flare reaction, and survival.

[7] = test system: CD20-expressing Raji-luc tumor cells; settings: even in the presence of an excess of rituximab variant with inert Fc domain (IgG1-RTX-FEAR); cited from earlier work

## Cn1c(CCCC(=O)O)nc2cc(N(CCCl)CCCl)ccc21 [bendamustine, 4-[5-[Bis(2-chloroethyl)amino]-1-methyl-iH-benzo[d]imidazole-2-yl]butanoic acid]
[1]
  number of viable B cells, bendamustine alone: decreased the number of viable B cells in a dose dependent manner
DLBCL SU-DHL-4 cells
  number of viable B cells, bendamustine alone: decreased the number of viable B cells in a dose dependent manner

## CC[C@H](Nc1ncnc2[nH]cnc12)c1nc2cccc(F)c2c(=O)n1-c1ccccc1 [idelalisib]
[2]
  1-year PFS: 43%
  toxicities: several toxicities leading to treatment discontinuation

## epcoritamab: IgG1 bispecific CD3×CD20 antibody, heavy/light chains SEQ ID NOs: 24, 25 and 26, 27; CAS 2134641-34-0
[3]
  dose-limiting toxicities: no dose-limiting toxicities reported
[3]; up to at least 48 mg, including 60 mg
  tolerated dose: at least 48 mg
[4]; biopsy taken 2 weeks after administering the anti-CD20 antibody
  tumor cell kill: up to 40%
[4]
  T-cell-mediated cytotoxicity in patient biopsies: induced T-cell-mediated cytotoxicity
[5]; bendamustine 0-20 μM, Raji or SU-DHL-4 cells, 48 hours
  epcoritamab-induced T-cell activation in the presence of bendamustine: not affected by the presence of bendamustine at all concentrations tested
[5]; bendamustine 0-20 μM, data not shown
  upregulation of T-cell activation markers on CD4+ T cells in the presence of bendamustine: not affected by bendamustine
[5]; in presence of Raji or SU-DHL-4 cells, epcoritamab 0.033 pg/mL-333 ng/mL, 48 hours
  activation of CD8+ T cells (upregulation of CD69, CD25 and LAMP-1): concentration-dependent activation of CD8+ T cells
[6]; 48 mg expansion, as of Sep. 8, 2021, preliminary, non-validated data
  responders in expansion phase: 1
[6]; as of Sep. 8, 2021, 17 patients dosed in total, preliminary, non-validated data
  responders in dose escalation phase: 5
[6]; preliminary data
  grade of all CRS events: Grade ½
  most common related AEs: CRS and Nausea
[7]
  tumor growth in the xenograft model: effectively reduce tumor growth

Reference: US20230357440A1, “BISPECIFIC ANTIBODY AGAINST CD3 AND CD20 IN COMBINATION THERAPY FOR TREATING FOLLICULAR LYMPHOMA” (GENMAB A/S, priority 2020, published 2023)
